The text below walks through data of paper PMC4232510, “Identification of Functionally Important Residues of the Rat P2X4 Receptor by Alanine Scanning Mutagenesis of the Dorsal Fin and Left Flipper Domains” (PLoS ONE, 2014).

Where a chain is given by its changes, count along the chain named.

By EC50 is commonly meant the concentration needed to bring the measured effect to its halfway point.

Assay in all cases: whole-cell patch clamp, HEK293T cells expressing mutant
What all share (format): cell-based
Background: The patch-clamp technique gives a direct electrical read-out from membranes.

One assay addresses T1, rP2X4R R282A mutant (Rattus norvegicus, UniProt P51577, R282A).
T1 construct: expressed in transfected cells; host or cells: HEK293T
T1 sequence (P51577 1-388 R282A): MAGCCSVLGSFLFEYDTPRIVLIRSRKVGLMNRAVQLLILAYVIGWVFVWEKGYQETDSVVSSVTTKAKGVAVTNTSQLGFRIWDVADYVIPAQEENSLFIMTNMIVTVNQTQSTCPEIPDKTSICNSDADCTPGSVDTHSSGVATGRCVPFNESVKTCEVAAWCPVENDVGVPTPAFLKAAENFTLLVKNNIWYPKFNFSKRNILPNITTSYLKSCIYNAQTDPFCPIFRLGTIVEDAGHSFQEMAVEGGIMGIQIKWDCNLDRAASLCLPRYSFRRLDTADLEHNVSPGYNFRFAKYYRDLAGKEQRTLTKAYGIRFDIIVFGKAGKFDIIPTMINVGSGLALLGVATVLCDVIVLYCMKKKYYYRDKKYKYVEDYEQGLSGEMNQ
As to conditions: for relative responsiveness: 100 µM agonist 2 s, relative to ATP (100%).

In another assay the target is T2, rP2X4R T210A mutant (Rattus norvegicus, UniProt P51577, T210A).
T2 construct: expressed in transfected cells; host or cells: HEK293T
T2 sequence (P51577 1-388 T210A): T1 sequence (P51577 1-388 R282A) with T210A, A282R
As to conditions: for relative responsiveness: 100 µM agonist 2 s, relative to ATP (100%).

The target in another assay is T3, rP2X4R N287A mutant (Rattus norvegicus, UniProt P51577, N287A).
T3 construct: expressed in transfected cells; host or cells: HEK293T
T3 sequence (P51577 1-388 N287A): T1 sequence (P51577 1-388 R282A) with A282R, N287A

Setting [1] is: 100 µM ATP 60 s, biexponential fit.
Where [2] appears, read: contribution of τdes2, 100 µM ATP 60 s.
The mark [3] stands for this setting: decay after removal of 1 or 3 µM ATP, 3 µM IVM.
Setting [4] is: naïve receptors, 2–5 s application.
The mark [5] stands for this setting: 3 µM IVM 4-6 min vs IVM-untreated.

On to “2′(3′-O-(4-Benzoylbenzoyl)adenosine 5′-triphosphate [BzATP]”, for which the relative responsiveness at rP2X4R R282A mutant is given as 25.7±3.7%; at rP2X4R T210A mutant it was 23.9±3.2 %.
On the same counts, the results for `CSc1nc(N)c2ncn([C@@H]3O[C@H](COP(=O)(O)OP(=O)(O)OP(=O)(O)O)[C@@H](O)[C@H]3O)c2n1` [2-MeS-ATP, 2-(Methylthio)adenosine 5′-triphosphate] are 55.1±12.9% and 59.2±6.9%.
Regarding `Nc1ncnc2c1ncn2[C@@H]1O[C@H](COP(=O)(O)OP(=O)(O)OP(=O)(O)O)[C@@H](O)[C@H]1O` [ATP], the “EC50 rightward shift compared to WT” value on rP2X4R R282A mutant was “approximately 10 fold”. Further, the τdes1 on rP2X4R R282A mutant (setting [1]) amounted to 4.0 ± 0.3 s; at rP2X4R T210A mutant (setting [1]) it was 2.0 ± 0.3 s; at rP2X4R N287A mutant (setting [1]), 1.6 ± 0.1 s. Moreover, the τdes2 at rP2X4R R282A mutant (setting [1]) is 14.7 ± 2.0 s; on rP2X4R T210A mutant (setting [1]) it was 14.4 ± 2.5 s; on rP2X4R N287A mutant (setting [1]) it was 10.2 ± 3.0 s. The values for the Imax at rP2X4R R282A mutant (100–1000 µM ATP), on rP2X4R T210A mutant (100–1000 µM ATP) and on rP2X4R N287A mutant (100–1000 µM ATP) were 0.7 ± 0.1 nA, 1.9 ± 0.2 nA and 1.6 ±0.2 nA, respectively. Moreover, the “Imax+IVM” value at rP2X4R R282A mutant (ATP after 3 µM IVM 4-6 min) stood at 4.5 ± 0.5 nA; on rP2X4R T210A mutant (ATP after 3 µM IVM 4-6 min), 3.5 ± 0.6 nA; at rP2X4R N287A mutant (ATP after 3 µM IVM 4-6 min) it was 4.0 ± 0.6 nA. The figures for the “A2 /(A1+A2)” value at rP2X4R R282A mutant (setting [2]), on rP2X4R T210A mutant (setting [2]) and at rP2X4R N287A mutant (setting [2]) were 64 ±14%, 52 ± 8% and 75 ± 16%, respectively. In addition, the “τoff +IVM” value at rP2X4R R282A mutant (setting [3]) is reported as 7.0 ± 0.6 s; on rP2X4R T210A mutant (setting [3]), 5.5 ± 0.4 s; at rP2X4R N287A mutant (setting [3]), 16 ± 2.5 s. Moreover, the EC50 amounted to 23 ± 8 µM on rP2X4R R282A mutant (setting [4]), 26 ± 2.6 µM on rP2X4R T210A mutant (setting [4]) and 3.2 ± 1 µM at rP2X4R N287A mutant (setting [4]). In addition, the τdes is 14 ± 1.0 s at rP2X4R R282A mutant (weighted, 100 µM ATP 60 s); 8.9 ± 2.1 s at rP2X4R T210A mutant (weighted, 100 µM ATP 60 s); 7.1 ± 0.5 s at rP2X4R N287A mutant (weighted, 100 µM ATP 60 s).
As to `Nc1ncnc2c1ncn2[C@@H]1O[C@H](CO[P@](=O)(O)O[P@](=O)(O)O[P@@](=O)(O)S)[C@@H](O)[C@H]1O` [ATPγS, Adenosine 5′-(γ-thio)triphosphate], the relative responsiveness on rP2X4R R282A mutant was 45.5±5.2%; at rP2X4R T210A mutant, 34.2±4.1 %.
Turning to `CC[C@H](C)[C@H]1O[C@]2(CC[C@@H]1C)C[C@@H]1C[C@@H](C/C=C(\C)[C@@H](O[C@H]3C[C@H](OC)[C@@H](O[C@H]4C[C@H](OC)[C@@H](O)[C@H](C)O4)[C@H](C)O3)[C@@H](C)/C=C/C=C3\CO[C@@H]4[C@H](O)C(C)=C[C@@H](C(=O)O1)[C@]34O)O2` [IVM, ivermectin], the “Fold incr. Imax” value at rP2X4R T210A mutant (setting [5]) was 1.8 ± 0.2 fold; at rP2X4R N287A mutant (setting [5]), 3.3 ± 0.4 fold.
Regarding `Nc1ncnc2c1ncn2C1OC(COP(=O)(O)CP(=O)(O)OP(=O)(O)O)C(O)C1O` (stereo not drawn) [α,β-meATP, α,β-methyleneadenosine 5′-triphosphate], the results for the relative responsiveness at rP2X4R R282A mutant and at rP2X4R T210A mutant were 27.3±7.9% and 8.8±2.3 %, respectively.
